Experimental data from BindingDB's records for PubMed 29133594 (University of North Carolina at Chapel Hill).
pIC50: −log10 of the molar value.

Assays:
[1] = target: RAC-alpha serine/threonine-protein kinase (Homo sapiens, UniProt P31749); test: Inhibition of AKT1 (unknown origin)
Aurora kinase A = target: T1, Aurora kinase A (Homo sapiens, UniProt O14965); test: Inhibition of AURKA (unknown origin)
T1 sequence (O14965 whole entry): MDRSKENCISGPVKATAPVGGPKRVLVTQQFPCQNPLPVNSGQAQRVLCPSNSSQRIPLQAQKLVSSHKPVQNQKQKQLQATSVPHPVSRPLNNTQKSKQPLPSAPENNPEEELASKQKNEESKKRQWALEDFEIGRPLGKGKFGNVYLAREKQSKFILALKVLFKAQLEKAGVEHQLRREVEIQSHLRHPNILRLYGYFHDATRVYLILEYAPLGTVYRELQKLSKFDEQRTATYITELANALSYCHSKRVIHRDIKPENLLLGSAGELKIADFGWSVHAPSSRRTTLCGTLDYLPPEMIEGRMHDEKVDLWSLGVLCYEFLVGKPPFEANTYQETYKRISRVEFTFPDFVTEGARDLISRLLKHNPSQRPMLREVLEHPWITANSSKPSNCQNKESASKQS

Aurora kinase B = Aurora kinase B (Homo sapiens, UniProt Q96GD4); test: Inhibition of AURKB (unknown origin)
Chain of Aurora kinase B (Q96GD4 whole entry): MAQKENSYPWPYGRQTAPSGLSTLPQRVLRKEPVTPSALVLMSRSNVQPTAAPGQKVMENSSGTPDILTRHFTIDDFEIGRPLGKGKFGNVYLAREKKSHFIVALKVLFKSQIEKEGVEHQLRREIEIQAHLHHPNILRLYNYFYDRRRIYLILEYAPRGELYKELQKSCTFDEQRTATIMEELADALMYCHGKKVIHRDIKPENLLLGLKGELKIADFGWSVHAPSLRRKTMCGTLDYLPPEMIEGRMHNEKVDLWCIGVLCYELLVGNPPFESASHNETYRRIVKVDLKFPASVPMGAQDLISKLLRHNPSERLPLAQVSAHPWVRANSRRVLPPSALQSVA

[2] = target: RAF proto-oncogene serine/threonine-protein kinase (Homo sapiens, UniProt P04049); test: Inhibition of CRAF (unknown origin)
Chain of RAF proto-oncogene serine/threonine-protein kinase (P04049 whole entry): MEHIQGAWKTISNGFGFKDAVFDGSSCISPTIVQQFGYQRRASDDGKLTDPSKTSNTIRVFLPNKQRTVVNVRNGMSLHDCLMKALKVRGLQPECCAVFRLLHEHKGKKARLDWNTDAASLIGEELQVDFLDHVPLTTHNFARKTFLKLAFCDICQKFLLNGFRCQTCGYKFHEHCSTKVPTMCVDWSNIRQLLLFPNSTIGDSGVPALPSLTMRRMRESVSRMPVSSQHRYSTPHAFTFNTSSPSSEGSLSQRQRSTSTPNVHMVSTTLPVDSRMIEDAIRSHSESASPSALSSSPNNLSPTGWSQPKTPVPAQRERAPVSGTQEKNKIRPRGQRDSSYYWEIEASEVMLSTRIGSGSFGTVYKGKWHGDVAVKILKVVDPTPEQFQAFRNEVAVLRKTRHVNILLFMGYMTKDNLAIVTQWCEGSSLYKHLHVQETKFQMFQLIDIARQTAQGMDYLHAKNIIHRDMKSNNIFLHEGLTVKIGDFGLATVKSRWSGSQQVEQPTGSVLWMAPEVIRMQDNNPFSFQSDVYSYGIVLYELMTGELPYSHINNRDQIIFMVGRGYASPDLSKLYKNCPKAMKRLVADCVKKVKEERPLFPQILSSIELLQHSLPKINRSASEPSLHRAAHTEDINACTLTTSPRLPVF

[3] = target: Mitogen-activated protein kinase 3 (Homo sapiens, UniProt P27361); test: Inhibition of ERK1 (unknown origin)
Chain of Mitogen-activated protein kinase 3 (P27361 whole entry): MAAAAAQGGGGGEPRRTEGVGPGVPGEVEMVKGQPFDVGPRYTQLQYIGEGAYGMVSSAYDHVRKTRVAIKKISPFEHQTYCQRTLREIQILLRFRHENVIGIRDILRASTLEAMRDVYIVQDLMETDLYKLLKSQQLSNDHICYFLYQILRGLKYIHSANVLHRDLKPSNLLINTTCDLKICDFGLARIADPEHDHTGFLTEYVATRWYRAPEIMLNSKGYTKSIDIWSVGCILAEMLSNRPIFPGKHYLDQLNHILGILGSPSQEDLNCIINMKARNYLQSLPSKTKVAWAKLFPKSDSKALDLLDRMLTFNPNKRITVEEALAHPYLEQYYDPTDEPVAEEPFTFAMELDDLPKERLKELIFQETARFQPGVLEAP

[4] = target: Serine/threonine-protein kinase PLK1 (Homo sapiens, UniProt P53350); test: Inhibition of PLK1 (unknown origin)
Chain of Serine/threonine-protein kinase PLK1 (P53350 whole entry): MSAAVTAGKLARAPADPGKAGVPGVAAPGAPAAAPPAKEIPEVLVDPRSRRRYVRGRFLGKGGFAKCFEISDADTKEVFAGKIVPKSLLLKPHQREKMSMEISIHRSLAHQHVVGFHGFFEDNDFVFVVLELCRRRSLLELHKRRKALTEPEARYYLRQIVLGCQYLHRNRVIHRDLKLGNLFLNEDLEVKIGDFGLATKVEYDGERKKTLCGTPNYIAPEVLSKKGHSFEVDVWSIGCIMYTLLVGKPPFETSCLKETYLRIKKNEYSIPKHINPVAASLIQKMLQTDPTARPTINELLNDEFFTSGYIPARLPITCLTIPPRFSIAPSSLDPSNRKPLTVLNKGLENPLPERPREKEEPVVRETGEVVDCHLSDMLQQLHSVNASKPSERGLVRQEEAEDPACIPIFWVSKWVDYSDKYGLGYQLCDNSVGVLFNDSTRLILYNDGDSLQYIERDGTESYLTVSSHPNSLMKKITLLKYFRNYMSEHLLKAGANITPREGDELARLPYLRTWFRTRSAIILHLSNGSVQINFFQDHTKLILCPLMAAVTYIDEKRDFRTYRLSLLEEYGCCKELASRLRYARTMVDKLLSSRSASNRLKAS

[5] = target: Serine/threonine-protein kinase PLK3 (Homo sapiens, UniProt Q9H4B4); test: Inhibition of PLK3 (unknown origin)
Chain of Serine/threonine-protein kinase PLK3 (Q9H4B4 whole entry): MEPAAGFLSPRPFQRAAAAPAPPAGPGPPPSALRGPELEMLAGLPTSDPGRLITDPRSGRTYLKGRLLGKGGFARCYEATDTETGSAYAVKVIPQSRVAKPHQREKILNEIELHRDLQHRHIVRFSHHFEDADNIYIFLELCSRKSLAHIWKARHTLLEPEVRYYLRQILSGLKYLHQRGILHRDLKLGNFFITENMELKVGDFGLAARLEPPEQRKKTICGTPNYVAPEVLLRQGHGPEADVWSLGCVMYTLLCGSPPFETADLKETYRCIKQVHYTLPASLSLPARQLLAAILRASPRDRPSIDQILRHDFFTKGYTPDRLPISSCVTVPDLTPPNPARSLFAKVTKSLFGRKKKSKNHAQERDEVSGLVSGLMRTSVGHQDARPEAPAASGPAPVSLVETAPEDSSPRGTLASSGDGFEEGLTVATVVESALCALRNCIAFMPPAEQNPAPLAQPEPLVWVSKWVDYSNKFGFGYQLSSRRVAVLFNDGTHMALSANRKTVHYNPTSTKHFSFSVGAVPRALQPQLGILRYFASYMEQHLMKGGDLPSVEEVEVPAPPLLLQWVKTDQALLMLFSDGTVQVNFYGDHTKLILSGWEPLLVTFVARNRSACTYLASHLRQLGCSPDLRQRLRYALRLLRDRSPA

Measured: pIC50

Chain of RAC-alpha serine/threonine-protein kinase (P31749 whole entry): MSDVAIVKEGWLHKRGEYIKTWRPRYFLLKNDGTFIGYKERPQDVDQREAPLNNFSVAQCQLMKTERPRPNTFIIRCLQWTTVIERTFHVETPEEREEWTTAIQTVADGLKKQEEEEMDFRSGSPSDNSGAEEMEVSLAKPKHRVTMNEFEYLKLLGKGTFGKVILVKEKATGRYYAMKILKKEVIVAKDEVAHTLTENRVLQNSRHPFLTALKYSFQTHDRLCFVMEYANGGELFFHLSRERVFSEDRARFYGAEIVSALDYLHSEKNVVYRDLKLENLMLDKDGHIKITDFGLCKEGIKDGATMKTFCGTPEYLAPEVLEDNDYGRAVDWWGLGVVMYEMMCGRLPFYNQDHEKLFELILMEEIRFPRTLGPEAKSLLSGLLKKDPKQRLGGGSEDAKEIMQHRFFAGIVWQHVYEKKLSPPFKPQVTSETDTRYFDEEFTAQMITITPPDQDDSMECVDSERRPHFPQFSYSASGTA

CCN1CCN(Cc2ccc(Nc3ncc(F)c(-c4cc(F)c5nc(C)n(C(C)C)c5c4)n3)nc2)CC1 [Abemaciclib]
< 4.70: all assays above
